Experimental data taken from the NIST ThermoML archive (doi:10.1016/j.jct.2017.07.024).
± gives the expanded uncertainty stated by the source.

Legend:
[1] = refractive index (Na D-line) (dimensionless); wn = mass fraction of the nth substance listed; details: 100 kPa, Liquid, Standard Abbe refractometry
[2] = wn = mass fraction of the nth substance listed; details: for surface tension liquid-gas: Maximal bubble pressure; for mass density: 100 kPa, Liquid, Vibrating tube method

CCCCCCn1cc[n+](C)c1.C[C@@H](O)[C@H](N)C(=O)[O-] [1-hexyl-3-methylimidazolium DL-threoninate] + O
Details	mass density [kg/m3]	refractive index	surface tension liquid-gas [mN/m]
[1], 288.15 K, w2 = 0.006	–	1.5042 ± 0.0013	–
[1], 288.15 K, w2 = 0.0091	–	1.5038 ± 0.0013	–
[1], 288.15 K, w2 = 0.012	–	1.5034 ± 0.0013	–
[1], 288.15 K, w2 = 0.0149	–	1.5031 ± 0.0013	–
[1], 288.15 K, w2 = 0.0172	–	1.5028 ± 0.0013	–
[1], 293.15 K, w2 = 0.006	–	1.5026 ± 0.0013	–
[1], 293.15 K, w2 = 0.0091	–	1.5023 ± 0.0013	–
[1], 293.15 K, w2 = 0.012	–	1.502 ± 0.0013	–
[1], 293.15 K, w2 = 0.0149	–	1.5017 ± 0.0013	–
[1], 293.15 K, w2 = 0.0172	–	1.5014 ± 0.0013	–
[1], 298.15 K, w2 = 0.006	–	1.5012 ± 0.0013	–
[1], 298.15 K, w2 = 0.0091	–	1.5009 ± 0.0013	–
[1], 298.15 K, w2 = 0.012	–	1.5006 ± 0.0013	–
[1], 298.15 K, w2 = 0.0149	–	1.5003 ± 0.0013	–
[1], 298.15 K, w2 = 0.0172	–	1.5 ± 0.0013	–
[1], 303.15 K, w2 = 0.006	–	1.4994 ± 0.0013	–
[1], 303.15 K, w2 = 0.0091	–	1.4991 ± 0.0013	–
[1], 303.15 K, w2 = 0.012	–	1.4988 ± 0.0013	–
[1], 303.15 K, w2 = 0.0149	–	1.4985 ± 0.0013	–
[1], 303.15 K, w2 = 0.0172	–	1.4982 ± 0.0012	–
[1], 308.15 K, w2 = 0.006	–	1.4981 ± 0.0013	–
[1], 308.15 K, w2 = 0.0091	–	1.4978 ± 0.0013	–
[1], 308.15 K, w2 = 0.012	–	1.4974 ± 0.0013	–
[1], 308.15 K, w2 = 0.0149	–	1.4971 ± 0.0013	–
[1], 308.15 K, w2 = 0.0172	–	1.4968 ± 0.0013	–
[1], 313.15 K, w2 = 0.006	–	1.4964 ± 0.0013	–
[1], 313.15 K, w2 = 0.0091	–	1.4961 ± 0.0013	–
[1], 313.15 K, w2 = 0.012	–	1.4958 ± 0.0013	–
[1], 313.15 K, w2 = 0.0149	–	1.4955 ± 0.0013	–
[1], 313.15 K, w2 = 0.0172	–	1.4952 ± 0.0012	–
[1], 318.15 K, w2 = 0.006	–	1.495 ± 0.0013	–
[1], 318.15 K, w2 = 0.0091	–	1.4947 ± 0.0013	–
[1], 318.15 K, w2 = 0.012	–	1.4944 ± 0.0013	–
[1], 318.15 K, w2 = 0.0149	–	1.4941 ± 0.0013	–
[1], 318.15 K, w2 = 0.0172	–	1.4938 ± 0.0013	–
[1], 323.15 K, w2 = 0.006	–	1.4933 ± 0.0013	–
[1], 323.15 K, w2 = 0.0091	–	1.4929 ± 0.0013	–
[1], 323.15 K, w2 = 0.012	–	1.4926 ± 0.0013	–
[1], 323.15 K, w2 = 0.0149	–	1.4922 ± 0.0013	–
[1], 323.15 K, w2 = 0.0172	–	1.4919 ± 0.0012	–
[1], 328.15 K, w2 = 0.006	–	1.4918 ± 0.0013	–
[1], 328.15 K, w2 = 0.0091	–	1.4914 ± 0.0013	–
[1], 328.15 K, w2 = 0.012	–	1.4911 ± 0.0013	–
[1], 328.15 K, w2 = 0.0149	–	1.4907 ± 0.0013	–
[1], 328.15 K, w2 = 0.0172	–	1.4904 ± 0.0013	–
[2], 288.15 K, w2 = 0.006	1089.58 ± 0.68	–	37.4 ± 0.5
[2], 288.15 K, w2 = 0.0091	1089.35 ± 0.68	–	37.6 ± 0.5
[2], 288.15 K, w2 = 0.012	1089.16 ± 0.68	–	37.8 ± 0.5
[2], 288.15 K, w2 = 0.0149	1088.99 ± 0.68	–	38 ± 0.5
[2], 288.15 K, w2 = 0.0172	1088.81 ± 0.68	–	38.2 ± 0.5
[2], 293.15 K, w2 = 0.006	1086.27 ± 0.68	–	37 ± 0.5
[2], 293.15 K, w2 = 0.0091	1086.04 ± 0.68	–	37.2 ± 0.5
[2], 293.15 K, w2 = 0.012	1085.85 ± 0.68	–	37.4 ± 0.5
[2], 293.15 K, w2 = 0.0149	1085.68 ± 0.68	–	37.6 ± 0.5
[2], 293.15 K, w2 = 0.0172	1085.5 ± 0.68	–	37.8 ± 0.5
[2], 298.15 K, w2 = 0.006	–	–	36.7 ± 0.5
[2], 298.15 K, w2 = 0.0091	–	–	36.9 ± 0.5
